Publication PMC10600239, “Selective MCL-1 inhibitor ABBV-467 is efficacious in tumor models but is associated with cardiac troponin increases in patients” (Communications Medicine, 2023)

Assays:
SKBR3 cells = experiment: Cell viability of parental and BAK-, BAX-, BCL2L11-, PMAIP1-deficient SKBR3 cells (CellTiter-Glo); format: cell-based; conditions: SKBR3, 24 h
Protocol: Fig. 2 Apoptosis induced by ABBV-467 is mechanism based and induces cell death in MCL-1-dependent cell lines after short target engagement periods. H929 cells were treated with ABBV-467 in the presence or absence of the pan-caspase inhibitor z-VAD-fmk (50 µM) and the impact on caspase-3/7 activation (a), mitochondrial membrane potential (ΔΨm; b), and apoptosis (c) determined. Alternatively, BAK-deficient SKBR3 cells were treated with ABBV-467 for 24 h and the impact on cell viability compared with the parental cell line, determined by CellTiter-Glo. Inset depicts a western blot of BAK and BAX expression in SKBR3 cell variants using GAPDH as a loading control. Each of the 3 proteins were probed on separate blots (d). Data in (a–d) are presented as the mean ± standard error of the mean. H929 and AMO-1 cells were treated with ABBV-467 at the indicated concentrations and the impact on caspase-3/7 activation and viability (DRAQ7-positive) cells determined over time by Incucyte®. Data are presented as the mean ± standard deviation (e). H929 or AMO-1 cells were cultured in media containing 10% human serum and treated with ABBV-467 for the indicated contact times. Cells were subsequently washed 3 times with drug-free media and incubated in drug-free media for the remainder of the 24-h treatment period at 37 °C before cell viability was determined by CellTiter-Glo. Mean EC50 and EC90 values were determined from the resulting dose-response curves from at least 3 independent experiments, each assessed in quadruplicate, and depict the mean ± standard error of the mean. Presented ABBV-467 dose-response curves in H929 and AMO-1 cells were compiled from at least 3 independent experiments (f).
Supplementary Fig. S5: SKBR3 cells deficient in BAX, BAK , PM AIP 1 (gene encoding the protein NOXA),
BCL 2L 11 (gene encoding the protein BIM) were treated with ABBV-467 for 24 hours and the impact on
cell death compared to the parental cell line determined by CellTiter- Glo™.

[1] = test system: Murine p185+ B-ALL cells expressing human MCL-1; experiment: Engineered murine B-cell ALL lines, cell viability (CellTiter-Glo); format: cell-based; conditions: Mus musculus, 24 hours, 10% fetal bovine serum
Protocol: Supplementary Table S3: Cellular potency and selectivity of ABBV-467 in
engineered murine B-c ell ALL c ell li nes
B-Cell ALL Lines (EC50, nM)
BCL-XL BCL-2 BCL-w BCL2A1 MCL-1
Murine p185+ B-ALL cells selectiv ely expressing individual human anti–BCL-2 family members (36)
were treated with ABBV-467 for 24 hours in RPMI-1640 media ( Life Technologies, CA) containing
10% fetal bovine serum, 55 μM 2 -mercaptoethanol, 2 mM glutamine, and 1%
penicil lin/ stre ptomycin an d th e i mpact on cell via bility de termi ned usi ng Ce llTiter- Glo. Each EC50 was
calculated from the resulting dose- response curves. Data are presented as the mean of three
independent experiments, except *(n=2). Where an EC50 could not be accurately determined,
activity was define d as >3,000 nM.
ALL, acute lymphoblastic leukemia; BCL- 2, B-cell lymphoma 2; EC 50, half maximal effective

[2] = 4-week (5-dose) IV infusion toxicity study with 4-week recovery; conditions: rats
Protocol: range-finding studies, and 4-we ek (5-dose) with recovery GLP studies in rats and dogs. For all studies, test item was
administered once weekly by 30 -minute IV infusion. Standard GLP endpoints were assessed including in- life (body weights,
clinical observations, eye exams), electro cardiograms (dog s only), clinical pathology (hematology, clinical chemistry, and
coagulation) and anatomic pathology (macroscopic and mic roscopic observations and organ weights).
Study design was generally in compliance with FDA Redbook
Guidance IV.C. 3.a. and IV.C.3. b. sections on short-term toxicity studies with rodents and non- rodents, respectively (viz.
Studies were appr oved by the animal use committee of Charles River Laboratories, Mattawan, MI. No animals or
data were excluded from analysis. Healthy dogs, as determined by veterinary physical examination and clinical pathology,
were randomized between dose groups using laboratory information management softw are.

Compound: Cc1c(Cl)c2c(Cl)c(C)c1-c1c(-c3ccc(F)cc3)sc3ncnc(c13)O[C@@H](C(=O)O)Cc1cc(ccc1OCc1ccnc(-c3ccc(OC[C@H]4COCCO4)cc3)n1)OC[C@@H](CN1CCN(C)CC1)O2 [ABBV-467]
- effect of BAK deletion on activity (SKBR3 cells): completely inhibited
- effect of deletion of BAX, BIM or NOXA genes on activity (SKBR3 cells): did not impact activity
- EC50 [1]: 20.3 nM
- impact on cardiovascular endpoints (anatomic, clinical pathology, and/or function) ([2]; multidose GLP toxicity study): No direct impact
- reversibility of toxicities ([2]; after a 4-week recovery period): partially or fully reversible
- primary target organs of apoptosis/single-cell necrosis ([2]; once-weekly dosing): pancreas, liver, gastrointestinal tract, and the hematopoietic system
